Reference: US7655430B2, “Method for analyzing residual agricultural chemical” (priority 2004, dated 2010)

Key:
choline esterase [1] = assay: choline esterase inhibition, inhibitory signal from hydrogen peroxide generated (choline esterase/choline oxidase, acetylcholine substrate); assay type: biochemical
Method: In this Example, it was intended to confirm the derivatization of carbosulfan (see FIG. 2). Carbosulfan was converted into carbofuran by adding a reduced glutathione (GSH), to a concentration of 5×10^−5M, and a glutathione-transferase (GST), to a concentration of 0.025 U/mL, to 10 mL of a 0.02M Mes buffer solution (pH 6.0) (2-morpholino-ethane sulfonic acid) containing carbosulfan in a variety of concentrations and then allowing each resulting reaction system to stand over at least 30 minutes.
Then, 10 mL of a solution containing 0.1M phosphate buffer solution (pH 7.6) and 0.2M potassium chloride was added to the foregoing solution which had been allowed to stand, to thus obtain a solution having a volume of 20 mL. […]
After bringing these components into contact with one another by allowing them to stand, acetylcholine was added to a concentration of 2×10^−4M to the foregoing solution and then the amount of hydrogen peroxide generated was determined to thus inspect the solution for the activity to inhibit the choline esterase activity. The same solution free of a carbosulfan was used as a control and this was compared with the solutions, which included carbosulfan in a variety of concentrations, based on the detected inhibitory signals corresponding to the quantities of the resulting hydrogen peroxide. […]

choline esterase [2] = details: background description, no test described; cited from earlier work

Structure (SMILES): CCCCN(CCCC)SN(C)C(=O)Oc1cccc2c1OC(C)(C)C2 [carbosulfan]
- calibration curve of inhibitory signal (FIG. 3) (choline esterase [1]; after conversion with reduced glutathione (5×10^−5M) and glutathione transferase (0.025 U/mL), at least 30 minutes): almost identical to that observed for the reference material of carbofuran
- inhibitory activity (inhibitory signal, calibration curve FIG. 3) (choline esterase [1]; reference material free of conversion with reduced glutathione and glutathione transferase): only a weak inhibitory activity

Structure (SMILES): CNC(=O)Oc1cccc2c1OC(C)(C)C2 [carbofuran]
- ability to inhibit choline esterase (choline esterase [2]): strong activity of inhibiting choline esterase activity
